{"source": "patent US11572373B2", "about": "“Maytansinoid-based drug delivery systems” (LADRX CORPORATION, priority 2017, dated 2023)", "key": {"[1]": {"test": "Stability of maytansinoids and maytansinoid-HSA conjugates in CD1 mouse plasma", "assay_type": "in vitro ADME", "conditions": "37° C., 30 μM", "procedure": "(§1) For studying the stability of the maytansinoids as wells as the maytansinoid-HSA conjugates in CD1 and human plasma the compounds were incubated at 37° C. for 24 hours. Remaining free maytansinoid or release of the respective maytansinoid was quantified by LC-MS/MS (or HPLC) at certain time points.\n(§2) Pooled CD1 mouse or human plasma (K2EDTA, Innovative research) was centrifuged (1 min at 12,044 g). The supernatant was first filtered through a filter needle (5 μm, sterile, Becton Dickinson) and subsequently through a cellulose acetate membrane (0.45 μm, sterile, Carl Roth). The filtered plasma (1710 μL) was preincubated at 37° C. for 30 min in a heating block. The free maytansinoid or albumin-binding maytansinoid as a 300 μM stock solution in DMSO (190 μL) was added to the preincubated plasma sample to produce a 30 μM solution of the respective maytansinoid or maytansinoid-HSA conjugate. The mixture was allowed to react for 10 min at 37° C. and then at each time point (0, 1, 2, 3, 4, 5, 21, and 24 hours) three samples (70 μL) were taken into a 96-well plate, sealed with a plastic mat, immediately frozen with liquid nitrogen and stored at −20° C. At the end of the experiment, the 96-well plate was thawed at room temperature. The samples (30 μL) were then directly transferred via a multichannel pipette into a 96-well Impact™ protein precipitation plate (Strata®) which was once washed with MeCN (150 μL) and then loaded with the internal standard (120 μL, MeCN containing 5 μg/mL maytansine). The Impact™ precipitation plate was sealed with a silicone mat and shaken for 2 min 420 rpm. The Impact™ precipitation plate was then placed onto a 96-well sample manifold and the filtrate was collected into another 96-well plate by applying mild vacuum. The 96-well plate was sealed with a silicone mat and kept at room temperature until LC-MS/MS quantification. The filtrate was injected into the LC-MS for quantification using the MRM mode. […]"}, "[2]": {"test": "Stability of maytansinoids and maytansinoid-HSA conjugates in human plasma", "assay_type": "in vitro ADME", "conditions": "37° C., 30 μM", "procedure": "as §1, §2"}, "[3]": {"test": "In vitro cytotoxicity in different cell lines using the CellTiter-Blue Cell Viability Assay", "assay_type": "cell-based, human", "conditions": "Homo sapiens; geometric mean over the n cell lines tested, 96 h treatment, CellTiter-Blue; read-out: Geomean IC50"}, "[4]": {"test": "Stability and release kinetics of maytansinoid-HSA conjugates in buffer solution at pH 4.0 and pH 7.4", "assay_type": "physicochemical", "conditions": "maytansinoid-HSA conjugate, PBS pH 7.4, 37° C., measured at 100 μM", "procedure": "For preparing HSA conjugates of albumin-binding maytansinoids, HSA (200 μM: 361.8 μL, 1078 μM free Cys34; 100 μM: 180.9 μL, 1078 μM free Cys34) was diluted with PBS buffer (4 mM sodium phosphate, 150 mM NaCl, pH 7.4) (200 μM: 678.2 μL; 100 μM: 859.1 μL) and DMSO (200 μM: 130.0 μL; 100 μM: 195.0 μL) and incubated in a heating block at 37° C. for 30 minutes. The albumin-binding maytansinoid was added as a 2 mM stock solution in DMSO (200 μM: 130.0 μL; 100 μM: 65.0 μL) to the preincubated HSA sample to produce a 200 μM or 100 μM solution of maytansinoid-prodrug and 300 μM or 150 μM of free Cys34. The mixture having a pH of 7.4 was allowed to react for 10 min at 37° C. and was then analyzed hourly for 24 hours by RP-HPLC (Phenomenex Aeris WP XB-C18, 3.6 μm, 250×4.6 mm).\nFor studying the release kinetics at pH 4.0 the mixture was acidified with a mixture of 50 mM sodium acetate buffer pH 3.0 (200 μM: 119.3 μL; 100 μM: 125.2 μL) and 1 M HCl (200 μM: 12.7 μL; 100 μM: 6.8 μL) to reach pH 4.0. The mixture was subsequently analyzed hourly for 24 hours by RP-HPLC (Phenomenex Aeris WP XB-C18, 3.6 μm, 250×4.6 mm).\nThe following RP-HPLC conditions were used: Phenomenex Aeris WP XB-C18 3.6 μm, 250×4.6 mm; eluent A (100% 20 mM Tris buffer pH 8.0) and eluent B (90:10, MeCN: water) eluting with a gradient of eluent B (25% 0-0.5 min, 25-35% 0.5-2.5 min, 35-85% 2.5-16 min, 85-95% 16-17 min, 95% 17-20 min, 95-25% 20-25 min, 25% 25-30 min, flow rate 1.0 mL/min). Column oven temperature 37° C.; autosampler temperature 37° C.; 20 μL of injection volume.\nTo quantify the percentage of free drug released, standard curves of the free maytansinoids were prepared at different concentrations (200 μM, 100 μM, 50 μM, 25 μM and 12.5 μM). The area under the curve (AUC) was determined at 250 nm."}, "albumin": {"target": "T1, albumin (Homo sapiens, UniProt P02768)", "T1 construct": "tissue Zen-Bio; host or cells: pooled human whole blood (K2EDTA, 36 donors) and plasma prepared from it", "T1 sequence (P02768 25-609)": "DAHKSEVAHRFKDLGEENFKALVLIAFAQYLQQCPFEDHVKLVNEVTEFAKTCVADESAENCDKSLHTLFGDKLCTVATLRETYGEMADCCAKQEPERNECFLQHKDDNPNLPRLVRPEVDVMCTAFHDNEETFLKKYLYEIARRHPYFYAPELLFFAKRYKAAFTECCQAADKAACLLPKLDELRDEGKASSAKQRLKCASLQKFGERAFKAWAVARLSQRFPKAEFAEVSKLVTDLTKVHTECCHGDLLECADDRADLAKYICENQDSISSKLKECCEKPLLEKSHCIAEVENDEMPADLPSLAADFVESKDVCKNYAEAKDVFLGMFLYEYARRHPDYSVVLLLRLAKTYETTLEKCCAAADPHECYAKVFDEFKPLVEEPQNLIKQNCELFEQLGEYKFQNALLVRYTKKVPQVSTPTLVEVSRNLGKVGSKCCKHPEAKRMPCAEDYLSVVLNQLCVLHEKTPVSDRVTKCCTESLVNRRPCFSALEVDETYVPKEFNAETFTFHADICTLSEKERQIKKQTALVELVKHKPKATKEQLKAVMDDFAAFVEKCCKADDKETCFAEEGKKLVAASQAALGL", "test": "in vitro", "assay_type": "in vitro ADME", "conditions": "37° C., 12.0 μM, read-out: % bound (converted)", "procedure": "To study the binding kinetics of the albumin-binding maytansinoids in pooled human plasma and pooled human whole blood, the compounds were incubated together with pooled human plasma at 37° C. and samples were taken at specified time points. Remaining albumin-binding maytansinoids were quantitated by HPLC.\nTo study the binding kinetics in human whole blood, the blood (K2EDTA, 36 donors, Zen-Bio; 900 μL) was preincubated at 37° C. for 30 min in a heating block. To study the binding kinetics in pooled human plasma, the pooled whole blood was centrifuged (10 min, 1811 g), the supernatant plasma was collected and then preincubated at 37° C. for 30 min.\nThe albumin-binding maytansinoid was added to the preincubated whole blood/plasma sample as a 10-fold dilution in PBS of a 1.2 mM stock solution in 2.5% propylene glycol in 10 mM sodium phosphate buffer and 1.48 mM citrate (100 μL) to produce a 12.0 μM solution of the respective albumin-binding maytansinoid. Samples (190 μL) were taken after 15 s, 2 min, 4 min, 8 min and 15 min. The samples were directly added to 760 μL MeCN containing maytansine (5 μg/mL) as an internal standard and vortexed for 1 min. After centrifugation (1 min at 12,044 g) the supernatant (850 μL) was concentrated under high vacuum. The residue was taken up in DMSO/water (1:1 v/v; 95 μL) and then analyzed by RP-HPLC. Percentage of binding was determined by comparison of the area under the curve (AUC) at 220 nm of the albumin-binding maytansinoid relative to a control sample (100% value) in PBS buffer. All experiments were performed in triplicates.\nHPLC method: Phenomenex Kinetex Polar C18, 2.6 μm, 100 Å, 150×4.6 mm; eluent A (95:5 5 mM ammonium acetate: MeCN) and eluent B (5:95 5 mM ammonium acetate: MeCN) eluting with a gradient of eluent B (30% 0-0.5 min, 30-95% 0.5-9.0 min, 95% 11.0 min, 95-30% 11.0-14.5 min, 30% 15.0 min, flow rate=1.0 mL/min). Column oven temperature ambient temperature; autosampler temperature 4° C.; 50 μL of injection volume."}, "[5]": {"system": "human tumor xenograft models", "test": "Antitumor activity in human tumor xenograft mice models", "assay_type": "in vivo", "conditions": "five human tumor xenograft models in nude mice, i.v. on day 1, 8, 15, and 22", "source_text": "This included starting tumor volumes in the range of approximately 80-110 mm^3 but also initial starting tumor volumes of up to approximately 400 mm^3. Furthermore, in most cases therapy with albumin-binding maytansinoids 30 and 31 induced long-term remissions and a decrease in Relative Tumor Volume (RTV). […] Experimental procedure and the results in the tumor-bearing mice models are described in detail in Examples 11-19 and FIGS. 3-16.\nFemale immunodeficient NMRI nude mice, from Charles River, received unilateral tumor implants subcutaneously in the left flank while under isoflurane anesthesia with human cancer tumors until tumors were palpable and had reached a volume of 80-200 mm^3 (unless otherwise stated).\nAnimals were kept in cages, the temperature inside the cages maintained at 25±1° C. with a relative humidity of 45-65% and an air change rate in the cage of 60-fold per hour. They were kept under a 14 h light: 10 h dark, artificial light cycle. The animals were fed with autoclaved Teklad Global 19% Protein Extruded Diet (T.2019S.12) from Envigo RMS SARL and had access to sterile filtered and acidified (pH 2.5) tap water, which was changed twice weekly. Feed and water were provided ad libitum. […] Animals were routinely monitored twice daily on working days and daily on Saturdays and Sundays. […] Relative body weights (RBW) of individual animals were calculated by dividing the individual absolute body weight on day X (BWx) by the individual body weight on the day of randomization multiplied by 100%. The tumor volume was determined by a two-dimensional measurement with calipers on the day of randomization (day 0) and then twice weekly. Tumor volumes were calculated according to the following equation: Tumor Vol [mm^3]=1 [mm]×w^2 [mm^2]×0.5, where “1” is the length and “w” is width of the tumor. The relative volume of an individual tumor on day X (RTVx) was calculated by dividing the absolute individual tumor volume [mm^3] of the respective tumor on day X (Tx) by the absolute individual tumor volume of the same tumor on the day of randomization multiplied by 100%. […]"}}, "note": "Like-named read-outs stand apart in the source and are kept apart here. Marks after values point to notes of the source that are not given here.", "data": [{"smiles": "COc1cc2cc(c1Cl)N(C)C(=O)C[C@H](OC(=O)Cc1ccc(C(C)=O)cc1F)[C@]1(C)O[C@H]1[C@H](C)[C@@H]1C[C@@](O)(NC(=O)O1)[C@H](OC)/C=C/C=C(\\C)C2", "note": "[Compound 2]", "values": [{"measurement": "% of free maytansinoid remaining after 24 h", "setting": "[1]", "result": 71.8, "unit": "%"}, {"measurement": "% of free maytansinoid remaining after 24 h", "setting": "[2]", "result": 74.8, "unit": "%"}, {"measurement": "IC50", "setting": "[3]", "result": 0.3, "unit": "nM"}]}, {"smiles": "COc1cc2cc(c1Cl)N(C)C(=O)C[C@H](OC(=O)Cc1ccc(C(C)=O)cc1)[C@]1(C)O[C@H]1[C@H](C)[C@@H]1C[C@@](O)(NC(=O)O1)[C@H](OC)/C=C/C=C(\\C)C2", "note": "[Compound 4]", "values": [{"measurement": "% of free maytansinoid remaining after 24 h", "setting": "[1]", "result": 65.2, "unit": "%"}, {"measurement": "% of free maytansinoid remaining after 24 h", "setting": "[2]", "result": 75.6, "unit": "%"}, {"measurement": "IC50", "setting": "[3]", "result": 0.16, "unit": "nM"}]}, {"smiles": "COc1cc2cc(c1Cl)N(C)C(=O)C[C@H](OC(=O)COc1cccc(C(C)=O)c1)[C@]1(C)O[C@H]1[C@H](C)[C@@H]1C[C@@](O)(NC(=O)O1)[C@H](OC)/C=C/C=C(\\C)C2", "note": "[Compound 3]", "values": [{"measurement": "% of free maytansinoid remaining after 24 h", "setting": "[1]", "result": 40.8, "unit": "%"}, {"measurement": "% of free maytansinoid remaining after 24 h", "setting": "[2]", "result": 69.6, "unit": "%"}, {"measurement": "IC50", "setting": "[3]", "result": 0.1, "unit": "nM"}]}, {"smiles": "COc1cc2cc(c1Cl)N(C)C(=O)C[C@H](OC(=O)Cc1ccc(/C(C)=N/NC(=O)c3ccc(NC(=O)CCCCCN4C(=O)C=CC4=O)cc3S(=O)(=O)O)cc1F)[C@]1(C)O[C@H]1[C@H](C)[C@@H]1C[C@@](O)(NC(=O)O1)[C@H](OC)/C=C/C=C(\\C)C2", "note": "[Compound 30]", "values": [{"measurement": "free maytansinoid after 24 h at pH 7.4", "setting": "[4]", "result": 9.6, "unit": "%**"}, {"measurement": "fraction unbound", "setting": "albumin; blood, pooled human whole blood, 15 s", "result": 0.017}, {"measurement": "fraction unbound", "setting": "albumin; blood, pooled human whole blood, 8 min", "result": 0.015}, {"measurement": "fraction unbound", "setting": "albumin; plasma, pooled human plasma, 15 s", "result": 0.036}, {"measurement": "fraction unbound", "setting": "albumin; plasma, pooled human plasma, 8 min", "result": 0.015}, {"measurement": "antitumor activity", "setting": "[5]", "result": "partial and complete tumor regressions"}]}]}
